This assay addresses CDK4 (Homo sapiens, UniProt P11802+Q16531). As to the kind of experiment: CDK4 percentage degradation in Calu-1 cells (Table 6). In kind it is cell-based. Details: Cells that express cyclin D1-3 and CDK4/6 proteins were treated with heterobifunctional compounds; endogenous in cells; host or cells: Calu-1. The following applies: 16 hours; for inhibition at 0.04 µM: 40 nM; for inhibition at 0.2 µM: 200 nM. The procedure, abridged:
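Calu-1 cells exposed to heterobifunctional compounds at 40 nM or 200 nM for 16 h. Cyclin D1 and CDK4 levels measured by Western blot of RIPA lysates (BCA-normalised loading), bands quantified by densitometry and expressed as percentage degradation.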

Each structure is given as a SMILES string.

CDK4, sequence (P11802 2-303 limits assumed): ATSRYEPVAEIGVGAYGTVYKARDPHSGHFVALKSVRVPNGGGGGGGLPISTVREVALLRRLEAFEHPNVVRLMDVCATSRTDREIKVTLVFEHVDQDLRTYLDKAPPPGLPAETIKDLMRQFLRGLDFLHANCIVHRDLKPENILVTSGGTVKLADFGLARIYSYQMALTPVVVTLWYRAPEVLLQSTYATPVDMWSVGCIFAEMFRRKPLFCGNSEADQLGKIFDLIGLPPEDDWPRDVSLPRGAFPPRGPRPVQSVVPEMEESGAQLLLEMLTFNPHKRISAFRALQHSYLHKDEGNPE
CDK4, sequence (P24385 whole entry partner): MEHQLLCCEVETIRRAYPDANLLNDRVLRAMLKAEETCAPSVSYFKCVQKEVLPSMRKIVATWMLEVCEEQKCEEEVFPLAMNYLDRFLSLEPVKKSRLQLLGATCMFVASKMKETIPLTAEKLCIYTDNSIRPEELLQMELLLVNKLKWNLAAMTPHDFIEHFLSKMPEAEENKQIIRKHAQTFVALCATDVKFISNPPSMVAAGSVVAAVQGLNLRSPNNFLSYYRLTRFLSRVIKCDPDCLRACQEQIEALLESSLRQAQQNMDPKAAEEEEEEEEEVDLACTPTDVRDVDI
CDK4, sequence (Q16531 2-1140 limits assumed): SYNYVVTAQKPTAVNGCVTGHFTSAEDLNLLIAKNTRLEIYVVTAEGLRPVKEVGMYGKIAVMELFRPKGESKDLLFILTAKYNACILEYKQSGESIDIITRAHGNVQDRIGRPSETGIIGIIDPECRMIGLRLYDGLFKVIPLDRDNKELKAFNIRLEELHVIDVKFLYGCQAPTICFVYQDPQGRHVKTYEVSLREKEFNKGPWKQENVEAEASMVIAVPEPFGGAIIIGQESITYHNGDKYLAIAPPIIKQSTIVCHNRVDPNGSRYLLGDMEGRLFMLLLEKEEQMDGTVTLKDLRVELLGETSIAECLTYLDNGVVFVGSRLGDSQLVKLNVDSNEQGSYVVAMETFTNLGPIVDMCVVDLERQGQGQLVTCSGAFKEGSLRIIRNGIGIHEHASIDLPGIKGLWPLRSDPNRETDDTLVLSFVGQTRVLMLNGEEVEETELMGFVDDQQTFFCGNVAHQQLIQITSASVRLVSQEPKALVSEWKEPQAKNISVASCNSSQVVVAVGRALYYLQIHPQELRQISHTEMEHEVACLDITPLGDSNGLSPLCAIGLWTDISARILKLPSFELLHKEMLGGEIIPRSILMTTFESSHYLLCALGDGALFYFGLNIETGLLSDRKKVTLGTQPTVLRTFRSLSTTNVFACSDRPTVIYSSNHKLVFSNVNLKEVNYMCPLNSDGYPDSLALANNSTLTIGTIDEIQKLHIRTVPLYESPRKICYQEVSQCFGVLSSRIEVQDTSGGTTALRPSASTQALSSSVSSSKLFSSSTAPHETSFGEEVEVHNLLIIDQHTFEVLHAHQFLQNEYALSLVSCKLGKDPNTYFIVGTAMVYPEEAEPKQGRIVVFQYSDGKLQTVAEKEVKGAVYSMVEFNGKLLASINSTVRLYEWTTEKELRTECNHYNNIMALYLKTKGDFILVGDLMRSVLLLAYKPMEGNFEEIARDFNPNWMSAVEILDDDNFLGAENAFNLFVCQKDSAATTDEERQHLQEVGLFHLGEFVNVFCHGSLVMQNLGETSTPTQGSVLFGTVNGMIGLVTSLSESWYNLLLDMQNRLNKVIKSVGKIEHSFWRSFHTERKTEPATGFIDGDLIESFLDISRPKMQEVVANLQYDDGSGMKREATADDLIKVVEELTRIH

As usually defined, the inhibition is the share of the control response that was lost under treatment. Read a high inhibition as strong suppression. In turn, `[2H]C([2H])([2H])Nc1ccc(C(=O)Nc2cc(C)on2)c(NC2CC3(CC(NC(=O)CN4CCN(c5ccc(Nc6ncc7c(C)c(C(C)=O)c(=O)n(C8CCCC8)c7n6)nc5)CC4)C3)C2)n1` (stereo not shown) [CPD-225, 2-((6-(2-(4-(6-((6-acetyl-8-cyclopentyl-5-methyl-7-oxo-7,8-dihydropyrido[2,3-d]pyrimidin-2-yl)amino)pyridin-3-yl)piperazin-1-yl)acetamido)spiro[3.3]heptan-2-yl)amino)-6-((methyl-d3)amino)-N-(5-methylisoxazol-3-yl)nicotinamide] returned an inhibition at 0.04 µM of 30 to 50% and an inhibition at 0.2 µM of 50 to 80%.

On to `CNc1ccc(C(=O)Nc2cc(C)on2)c(NC2CC(NC(=O)CN3CCN(c4ccc(Nc5ncc6c(C)c(C(C)=O)c(=O)n(C7CCCC7)c6n5)nc4)CC3)C2)n1` (stereo not shown) [CPD-198, 2-((3-(2-(4-(6-((6-acetyl-8-cyclopentyl-5-methyl-7-oxo-7,8-dihydropyrido[2,3-d]pyrimidin-2-yl)amino)pyridin-3-yl)piperazin-1-yl)acetamido)cyclobutyl)amino)-6-(methylamino)-N-(5-methylisoxazol-3-yl)nicotinamide], for which the inhibition at 0.04 µM was < 30% and the inhibition at 0.2 µM lay within 30 to 50%.

Regarding `CNc1ccc(C(=O)Nc2ccc(C(F)(F)F)nn2)c(NCCCCCNC(=O)CN2CCN(c3ccc(Nc4ncc5c(C)c(C(C)=O)c(=O)n(C6CCCC6)c5n4)nc3)CC2)n1` [CPD-19, 2-((5-(2-(4-(6-((6-Acetyl-8-cyclopentyl-5-methyl-7-oxo-7,8-dihydropyrido[2,3-d]pyrimidin-2-yl)amino)pyridin-3-yl)piperazin-1-yl)acetamido)pentyl)amino)-6-(methylamino)-N-(6-(trifluoromethyl)pyridazin-3-yl)nicotinamide], the inhibition at 0.04 µM is < 30%.

`CNc1ccc(C(=O)Nc2cn(C)c(C)n2)c(NC2CC3(CC(NC(=O)CN4CCN(c5ccc(Nc6ncc7c(C)c(C(C)=O)c(=O)n(C8CCCC8)c7n6)nc5)CC4)C3)C2)n1` (stereo not shown) [CPD-179, 2-((6-(2-(4-(6-((6-acetyl-8-cyclopentyl-5-methyl-7-oxo-7,8-dihydropyrido[2,3-d]pyrimidin-2-yl)amino)pyridin-3-yl)piperazin-1-yl)acetamido)spiro[3.3]heptan-2-yl)amino)-N-(1,2-dimethyl-1H-imidazol-4-yl)-6-(methylamino)nicotinamide] had an inhibition at 0.04 µM of 50 to 80% and an inhibition at 0.2 µM of 50 to 80%.

Take `CC(=O)c1c(C)c2cnc(Nc3ccc(N4CCN(CC(=O)NCCCCCNc5nc(C)ccc5C(=O)Nc5nc(C)c(C)s5)CC4)cn3)nc2n(C2CCCC2)c1=O` [CPD-3, 2-((5-(2-(4-(6-((6-acetyl-8-cyclopentyl-5-methyl-7-oxo-7,8-dihydropyrido[2,3-d]pyrimidin-2-yl)amino)pyridin-3-yl)piperazin-1-yl)acetamido)pentyl)amino)-N-(4,5-dimethylthiazol-2-yl)-6-methylnicotinamide]: the inhibition at 0.04 µM fell in the range of 50 to 80% and the inhibition at 0.2 µM fell in the range of 50 to 80%.

As for `CNc1ccc(C(=O)Nc2cccc(C(C)C)n2)c(NC2CC3(CC(NC(=O)CN4CCN(c5ccc(Nc6ncc7c(C)c(C(C)=O)c(=O)n(C8CCCC8)c7n6)nc5)CC4)C3)C2)n1` (stereo not shown) [CPD-76, 2-((6-(2-(4-(6-((6-Acetyl-8-cyclopentyl-5-methyl-7-oxo-7,8-dihydropyrido[2,3-d]pyrimidin-2-yl)amino)pyridin-3-yl)piperazin-1-yl)acetamido)spiro[3.3]heptan-2-yl)amino)-N-(6-isopropylpyridin-2-yl)-6-(methylamino)nicotinamide], the inhibition at 0.04 µM is < 30% and the inhibition at 0.2 µM was in the range of 30 to 50%.

On to `[2H]C([2H])([2H])Nc1ccc(C(=O)Nc2ccc(N(C)C)nn2)c(NC2CN(C(=O)C(F)(F)CN3CCN(c4ccc(Nc5ncc6c(C)c(C(C)=O)c(=O)n(C7CCCC7)c6n5)nc4)CC3)C2)n1` [CPD-248, 2-((1-(3-(4-(6-((6-acetyl-8-cyclopentyl-5-methyl-7-oxo-7,8-dihydropyrido[2,3-d]pyrimidin-2-yl)amino)pyridin-3-yl)piperazin-1-yl)-2,2-difluoropropanoyl)azetidin-3-yl)amino)-N-(6-(dimethylamino)pyridazin-3-yl)-6-((methyl-d3)amino)nicotinamide], for which the inhibition at 0.04 µM is < 30% and the inhibition at 0.2 µM is < 30%.

Take `CNc1ccc(C(=O)Nc2cccc(C3CC3)n2)c(NC2CC3(CC(NC(=O)CN4CCN(c5ccc(Nc6ncc7c(C)c(C(C)=O)c(=O)n(C8CCCC8)c7n6)nc5)CC4)C3)C2)n1` (stereo not shown) [CPD-72, 2-((6-(2-(4-(6-((6-Acetyl-8-cyclopentyl-5-methyl-7-oxo-7,8-dihydropyrido[2,3-d]pyrimidin-2-yl)amino)pyridin-3-yl)piperazin-1-yl)acetamido)spiro[3.3]heptan-2-yl)amino)-N-(6-cyclopropylpyridin-2-yl)-6-(methylamino)nicotinamide]: the inhibition at 0.04 µM was in the range of 50 to 80% and the inhibition at 0.2 µM is > 80%.

Turning to `CNc1ccc(C(=O)Nc2ccc(N(C)C)nn2)c(NC[C@H]2CC[C@H](CNC(=O)N3CCN(c4ccc(Nc5ncc6c(C)c(C(C)=O)c(=O)n(C7CCCC7)c6n5)nc4)CC3)CC2)n1` [CPD-169, 4-(6-((6-acetyl-8-cyclopentyl-5-methyl-7-oxo-7,8-dihydropyrido[2,3-d]pyrimidin-2-yl)amino)pyridin-3-yl)-N-((trans-4-(((3-((6-(dimethylamino)pyridazin-3-yl)carbamoyl)-6-(methylamino)pyridin-2-yl)amino)methyl)cyclohexyl)menthyl)piperazine-1-carboxamide], the inhibition at 0.04 µM is < 30% and the inhibition at 0.2 µM fell in the range of 30 to 50%.

Take `[2H]C([2H])([2H])Nc1ccc(C(=O)Nc2cc(C)on2)c(NC2CCN(C(=O)CN3CCN(c4ccc(Nc5ncc6c(C)c(C(C)=O)c(=O)n(C7CCCC7)c6n5)nc4)CC3)CC2)n1` [CPD-231, 2-((1-(2-(4-(6-((6-acetyl-8-cyclopentyl-5-methyl-7-oxo-7,8-dihydropyrido[2,3-d]pyrimidin-2-yl)amino)pyridin-3-yl)piperazin-1-yl)acetyl)piperidin-4-yl)amino)-6-((methyl-d3)amino)-N-(5-methylisoxazol-3-yl)nicotinamide]: the inhibition at 0.04 µM fell in the range of 30 to 50% and the inhibition at 0.2 µM lay in the range of 50 to 80%.

`CNc1ccc(C(=O)Nc2cc(C)on2)c(NC2CC3(CC(NC(=O)CN4CCN(c5ccc(Nc6ncc7c(C)c(C(C)=O)c(=O)n(C8CCCC8)c7n6)nc5)CC4)C3)C2)n1` (stereo not shown) [CPD-160, 2-((6-(2-(4-(6-((6-acetyl-8-cyclopentyl-5-methyl-7-oxo-7,8-dihydropyrido[2,3-d]pyrimidin-2-yl)amino)pyridin-3-yl)piperazin-1-yl)acetamido)spiro[3.3]heptan-2-yl)amino)-6-(methylamino)-N-(5-methylisoxazol-3-yl)nicotinamide]: the inhibition at 0.04 µM was 50 to 80% and the inhibition at 0.2 µM was > 80%.

`CNc1ccc(C(=O)Nc2cc(C)on2)c(NC2CCN(C(=O)CN3CCN(c4ccc(Nc5ncc6c(C)c(C(C)=O)c(=O)n(C7CCCC7)c6n5)nc4)CC3)CC2)n1` [CPD-229, 2-((1-(2-(4-(6-((6-acetyl-8-cyclopentyl-5-methyl-7-oxo-7,8-dihydropyrido[2,3-d]pyrimidin-2-yl)amino)pyridin-3-yl)piperazin-1-yl)acetyl)piperidin-4-yl)amino)-6-(methylamino)-N-(5-methylisoxazol-3-yl)nicotinamide] displayed an inhibition at 0.04 µM of 30 to 50% and an inhibition at 0.2 µM of 50 to 80%.

Take `CNc1ccc(C(=O)Nc2ccc(N(C)C)nn2)c(N(C)CCCCCNC(=O)CN2CCN(c3ccc(Nc4ncc5c(C)c(C(C)=O)c(=O)n(C6CCCC6)c5n4)nc3)CC2)n1` [CPD-23, 2-((5-(2-(4-(6-((6-Acetyl-8-cyclopentyl-5-methyl-7-oxo-7,8-dihydropyrido[2,3-d]pyrimidin-2-yl)amino)pyridin-3-yl)piperazin-1-yl)acetamido)pentyl)(methyl)amino)-N-(6-(dimethylamino)pyridazin-3-yl)-6-(methylamino)nicotinamide]: the inhibition at 0.04 µM is < 30% and the inhibition at 0.2 µM was < 30%.

Consider `CNc1ccc(C(=O)Nc2ccc(N(C)C)nn2)c(NC2CC3(C2)CN(C(=O)C(C)(C)CN2CCN(c4ccc(Nc5ncc6c(C)c(C(C)=O)c(=O)n(C7CCCC7)c6n5)nc4)CC2)C3)n1` [CPD-118, 2-((2-(3-(4-(6-((6-Acetyl-8-cyclopentyl-5-methyl-7-oxo-7,8-dihydropyrido[2,3-d]pyrimidin-2-yl)amino)pyridin-3-yl)piperazin-1-yl)-2,2-dimethylpropanoyl)-2-azaspiro[3.3]heptan-6-yl)amino)-N-(6-(dimethylamino)pyridazin-3-yl)-6-(methylamino)nicotinamide], for which the inhibition at 0.04 µM was 50 to 80% and the inhibition at 0.2 µM lay within 50 to 80%.

For `CNc1ccc(C(=O)Nc2cccc(C(F)(F)F)n2)c(NC2CC3(CC(NC(=O)CN4CCN(c5ccc(Nc6ncc7c(C)c(C(C)=O)c(=O)n(C8CCCC8)c7n6)nc5)CC4)C3)C2)n1` (stereo not shown) [CPD-91, 2-((6-(2-(4-(6-((6-Acetyl-8-cyclopentyl-5-methyl-7-oxo-7,8-dihydropyrido[2,3-d]pyrimidin-2-yl)amino)pyridin-3-yl)piperazin-1-yl)acetamido)spiro[3.3]heptan-2-yl)amino)-6-(methylamino)-N-(6-(trifluoromethyl)pyridin-2-yl)nicotinamide], the inhibition at 0.04 µM was < 30% and the inhibition at 0.2 µM fell in the range of 30 to 50%.

`CNc1ccc(C(=O)N(C)c2ccc(N(C)C)nn2)c(NCCCCCNC(=O)CN2CCN(c3ccc(Nc4ncc5c(C)c(C(C)=O)c(=O)n(C6CCCC6)c5n4)nc3)CC2)n1` [CPD-71, 2-((5-(2-(4-(6-((6-acetyl-8-cyclopentyl-5-methyl-7-oxo-7,8-dihydropyrido[2,3-d]pyrimidin-2-yl)amino)pyridin-3-yl)piperazin-1-yl)acetamido)pentyl)amino)-N-(6-(dimethylamino)pyridazin-3-yl)-N-methyl-6-(methylamino)nicotinamide]: the inhibition at 0.04 µM is < 30% and the inhibition at 0.2 µM was < 30%.

For the origin of these results see patent publication US20260297081A1, “COMPOUNDS AND METHODS OF TREATING CANCERS” (Cullgen Inc., priority 2023, published 2026).
